PMC10052977, “α,ω-Diacyl-Substituted Analogues of Natural and Unnatural Polyamines: Identification of Potent Bactericides That Selectively Target Bacterial Membranes” (International Journal of Molecular Sciences, 2023)
Converted amounts (≈) assume the structure as drawn.

Columns and labels:
human red blood cells = assay: Hemolytic assay; assay type: cell-based; settings: mean (n = 2)
Description: Human whole blood was washed three times with 3 volumes of 0.9% NaCl and then resuspended in same to a concentration of 0.5 × 10^8 cells/mL, as determined by manual cell count in a Neubauer hemocytometer. The washed cells were then added to the 384-well compound-containing plates for a final volume of 50 μL. After a 10 min shake on a plate shaker, the plates were then incubated for 1 h at 37 °C. After incubation, the plates were centrifuged at 1000× g for 10 min to pellet cells and debris; 25 μL of the supernatant was then transferred to a polystyrene 384-well assay plate. Hemolysis was determined by measuring the supernatant absorbance at […] (OD405). The absorbance was measured using a Tecan M1000 Pro monochromator plate reader. HC10 and HC50 (concentration at 10% and 50% hemolysis, respectively) were calculated by curve fitting the inhibition values vs. log (concentration) using a sigmoidal dose–response function with variable fitting values for top, bottom and slope.

[1] = tested on: Klebsiella pneumoniae ATCC700603; assay: MIC, CO-ADD broth microdilution; assay type: cell-based; settings: mean (n = 2)
[2] = tested on: Pseudomonas aeruginosa PAO1 or ATCC 27853; assay: MIC, broth dilution (CA-SFM); assay type: cell-based; settings: mean (n = 3)
[3] = Cytotoxicity assay (resazurin); assay type: cell-based, human; settings: human; HEK293 cells; mean (n = 2); highest dose tested 32 μg/mL; read-out: Cytotoxicity (concentration of compound at 50% cytotoxicity, IC50)
[4] = tested on: Acinetobacter baumannii ATCC19606; assay: MIC, CO-ADD broth microdilution; assay type: cell-based; settings: mean (n = 2)
[5] = tested on: Escherichia coli ATCC 25922; assay: MIC, CO-ADD broth microdilution; assay type: cell-based; settings: ATCC25922, mean (n = 2)
[6] = tested on: Staphylococcus aureus ATCC 25923 or ATCC 29213; assay: MIC, broth dilution (CA-SFM); assay type: cell-based; settings: Staphylococcus aureus ATCC 25923 or ATCC 29213; mean (n = 3); read-out: MIC S. a
[7] = tested on: Candida albicans ATCC90028; assay: Antifungal MIC, CO-ADD; assay type: cell-based; settings: mean (n = 2)
Description: (§1) For the antifungal assay, fungi strains were cultured for 3 days on YPD agar at 30 °C. A yeast suspension of 1 × 10^6 to 5 × 10^6 CFU/mL was prepared from five colonies. These stock suspensions were diluted with yeast nitrogen base (YNB) (Becton Dickinson, 233520) broth to a final concentration of 2.5 × 10^3 CFU/mL. […] Plates were covered and incubated at 35 °C for 36 h without shaking. C. albicans MICs were determined by measuring the absorbance at OD530. […] Fluconazole was used as a positive fungal inhibitor standard for C. albicans and C. neoformans. […] Quality control (QC) of the assays was determined by antimicrobial controls and Z’-factor (using positive and negative controls).

[8] = tested on: Cryptococcus neoformans ATCC208821; assay: Antifungal MIC, CO-ADD; assay type: cell-based
Description: as §1

MRSA ATCC 43300 = assay: MIC, CO-ADD broth microdilution; assay type: cell-based, Staphylococcus aureus; settings: Staphylococcus aureus; MRSA ATCC 43300; mean (n = 2); read-out: MIC MRSA
[9] = ATCC208821, Cryptococcus neoformans ATCC208821, mean (n = 2)

Row | Compound | Hemolysis (HC10, concentration at 10% hemolytic activity) (human red blood cells) [µM] | MIC [1] [µM] | MIC [2] [µM] | IC50 at 20 h [3] [µM] | MIC [4] [µM] | MIC [5] [µM] | MIC [6] [µM] | MIC [7] [µM] | MIC [8, 9] [µM] | MIC (MRSA ATCC 43300) [µM] | MIC ([7]; 36 h) [µM] | MIC ([8]; ATCC208821, 36 h, Cryptococcus neoformans ATCC208821, mean (n = 2)) [µM]
1 | O=C(NCCCNCCCCNCCCNC(=O)C(c1ccccc1)(c1ccccc1)c1ccccc1)C(c1ccccc1)(c1ccccc1)c1ccccc1.O=C(O)C(F)(F)F.O=C(O)C(F)(F)F [Compound 17a, N^1,N^4-Bis(3-(2,2,2-triphenylacetamido)propyl)butane-1,4-diaminium 2,2,2-trifluoroacetate] | 5.57 | > 33 | 300 | 0.329 | 8.24 | 1.03 | 6.25 | > 33 | < 0.26 | < 0.26 | – | –
2 | O=C(CCC(=O)NCCC(c1ccccc1)c1ccccc1)NCCCNCCCCCCNCCCNC(=O)CCC(=O)NCCC(c1ccccc1)c1ccccc1 [Compound 16b, N^1,N^6-Bis(3-(4-((3,3-diphenylpropyl)amino)-4-oxobutanamido)propyl)hexane-1,6-diaminium 2,2,2-trifluroracetate] | >30.6 | > 30.6 | 480 (≈ 392 µg/mL) | > 30.6 | > 30.6 | > 30.6 | 24 (≈ 19.6 µg/mL) | > 30.6 | > 30.6 | ≤ 0.24 | – | –
3 | O=C(CC(c1ccccc1)(c1ccccc1)c1ccccc1)NCCCNCCCCCCCCNCCCNC(=O)CC(c1ccccc1)(c1ccccc1)c1ccccc1.O=C(O)C(F)(F)F.O=C(O)C(F)(F)F [Compound 18d, N^1,N^8-Bis(3-(3,3,3-triphenylpropanamido)propyl)octane-1,8-diaminium 2,2,2-trifluoroacetate] | 3.17 | > 30.3 | 200 | 9.7 | 7.6 | 7.58 | 3.12 | < 0.24 | 7.6 | < 0.24 | – | –
4 | O=C(NCCCNCCCCCCCCCCNCCCNC(=O)C(c1ccccc1)(c1ccccc1)c1ccccc1)C(c1ccccc1)(c1ccccc1)c1ccccc1.O=C(O)C(F)(F)F.O=C(O)C(F)(F)F [Compound 17e, N^1,N^10-Bis(3-(2,2,2-triphenylacetamido)propyl)decane-1,10-diaminium 2,2,2-trifluoroacetate] | ≤0.234 | > 30.3 | 300 | > 30.3 | > 30.3 | < 0.23 | 3.12 | > 30.3 | < 0.23 | < 0.23 | – | –
5 | O=C(NCCCNCCCCCCCCNCCCNC(=O)C(c1ccccc1)(c1ccccc1)c1ccccc1)C(c1ccccc1)(c1ccccc1)c1ccccc1.O=C(O)C(F)(F)F.O=C(O)C(F)(F)F [Compound 17d, N^1,N^8-Bis(3-(2,2,2-triphenylacetamido)propyl)octane-1,8-diaminium 2,2,2-trifluoroacetate] | 0.719 | > 31.2 | 300 | ≤ 0.243 | 7.79 | 15.6 | 6.25 | 15.6 | < 0.24 | < 0.24 | – | –
6 | O=C(CC(c1ccccc1)c1ccccc1)NCCCNCCCCCCCCCCNCCCNC(=O)CC(c1ccccc1)c1ccccc1.O=C(O)C(F)(F)F.O=C(O)C(F)(F)F [Compound 15e, N^1,N^10-Bis(3-(3,3-diphenylpropanamido)propyl)decane-1,10-diaminium 2,2,2-trifluoroacetate] | >34.4 | > 34.4 | 200 | > 34.4 | 2.15 | ≤ 0.27 | 3.13 | > 34.4 | > 34.4 | ≤ 0.27 | – | –
7 | O=C(CC(c1ccccc1)c1ccccc1)NCCCNCCCCCCCNCCCNC(=O)CC(c1ccccc1)c1ccccc1.O=C(O)C(F)(F)F.O=C(O)C(F)(F)F [Compound 15c, N^1,N^7-Bis(3-(3,3-diphenylpropanamido)propyl)heptane-1,7-diaminium 2,2,2-trifluoroacetate] | >36.0 | > 36 | 100 | > 36 | > 36 | 2.3 | 6.25 | > 36 | ≤ 0.28 | ≤ 0.28 | – | –
8 | O=C(CC(c1ccccc1)(c1ccccc1)c1ccccc1)NCCCNCCCCCCCCCCNCCCNC(=O)CC(c1ccccc1)(c1ccccc1)c1ccccc1.O=C(O)C(F)(F)F.O=C(O)C(F)(F)F [Compound 18e, N^1,N^10-Bis(3-(3,3,3-triphenylpropanamido)propyl)decane-1,10-diaminium 2,2,2-trifluoroacetate] | ≤0.231 | > 29.5 | 200 | 7.23 | < 0.23 | > 29.5 | 1.56 | < 0.23 | < 0.23 | < 0.23 | – | –
9 | O=C(CC(c1ccccc1)(c1ccccc1)c1ccccc1)NCCCNCCCCCCCCCCCCNCCCNC(=O)CC(c1ccccc1)(c1ccccc1)c1ccccc1.O=C(O)C(F)(F)F.O=C(O)C(F)(F)F [Compound 18f, N^1,N^12-Bis(3-(3,3,3-triphenylpropanamido)propyl)dodecane-1,12-diaminium 2,2,2-trifluoroacetate] | ≤0.225 | > 28.8 | 300 | 0.409 | > 28.8 | > 28.8 | 25 | – | – | < 0.22 | < 0.23 | < 0.23
10 | O=C(NCCCNCCCCCCNCCCNC(=O)C(c1ccccc1)(c1ccccc1)c1ccccc1)C(c1ccccc1)(c1ccccc1)c1ccccc1.O=C(O)C(F)(F)F.O=C(O)C(F)(F)F [Compound 17b, N^1,N^6-Bis(3-(2,2,2-triphenylacetamido)propyl)hexane-1,6-diaminium 2,2,2-trifluoroacetate] | 6.27 | 32 | 300 | ≤ 0.25 | 4 | 4 | 6.25 | 16 | < 0.25 | < 0.25 | – | –
11 | O=C(NCCCNCCCCCCCCCCCCNCCCNC(=O)C(c1ccccc1)(c1ccccc1)c1ccccc1)C(c1ccccc1)(c1ccccc1)c1ccccc1.O=C(O)C(F)(F)F.O=C(O)C(F)(F)F [Compound 17f, N^1,N^12-Bis(3-(2,2,2-triphenylacetamido)propyl)dodecane-1,12-diaminium 2,2,2-trifluoroacetate] | ≤0.231 | > 29.5 | 300 | ≤ 0.231 | > 29.5 | > 29.5 | 6.25 | < 0.23 | < 0.23 | < 0.23 | – | –
12 | O=C(CC(c1ccccc1)(c1ccccc1)c1ccccc1)NCCCNCCCCCCCNCCCNC(=O)CC(c1ccccc1)(c1ccccc1)c1ccccc1.O=C(O)C(F)(F)F.O=C(O)C(F)(F)F [Compound 18c, N^1,N^7-Bis(3-(3,3,3-triphenylpropanamido)propyl)heptane-1,7-diaminium 2,2,2-trifluoroacetate] | 3.12 | 30.7 | 100 | 13.2 | 1.92 | 3.84 | 1.56 | 3.84 | 30.7 | < 0.24 | – | –
13 | O=C(CC(c1ccccc1)(c1ccccc1)c1ccccc1)NCCCNCCCCCCNCCCNC(=O)CC(c1ccccc1)(c1ccccc1)c1ccccc1.O=C(O)C(F)(F)F.O=C(O)C(F)(F)F [Compound 18b, N^1,N^6-Bis(3-(3,3,3-triphenylpropanamido)propyl)hexane-1,6-diaminium 2,2,2-trifluoroacetate] | 0.985 | 31.2 | 50 | 15.7 | 7.8 | 0.97 | 1.56 | 7.79 | 31.2 | < 0.24 | – | –
